Laboratory results published in article PMC6657216, “Defining the Contribution of CYP1A1 and CYP1A2 to Drug Metabolism Using Humanized CYP1A1/1A2 and Cyp1a1/Cyp1a2 Knockout Mice” (Drug Metabolism and Disposition, 2019).
Values joined by “and” are separate entries in the source; they are usually repeats but may differ in a detail not shown here. Equal entries are not always repeated. Where two headings read alike, the source gives them in different places.

Experiments:
[1] = target: T1, recombinant human CYP1A1 (Homo sapiens, UniProt P04798); assay: EROD by recombinant human CYP1A1 with and without quinidine; details: for Kd: EROD, rCYP1A1
T1 sequence (P04798 1-512): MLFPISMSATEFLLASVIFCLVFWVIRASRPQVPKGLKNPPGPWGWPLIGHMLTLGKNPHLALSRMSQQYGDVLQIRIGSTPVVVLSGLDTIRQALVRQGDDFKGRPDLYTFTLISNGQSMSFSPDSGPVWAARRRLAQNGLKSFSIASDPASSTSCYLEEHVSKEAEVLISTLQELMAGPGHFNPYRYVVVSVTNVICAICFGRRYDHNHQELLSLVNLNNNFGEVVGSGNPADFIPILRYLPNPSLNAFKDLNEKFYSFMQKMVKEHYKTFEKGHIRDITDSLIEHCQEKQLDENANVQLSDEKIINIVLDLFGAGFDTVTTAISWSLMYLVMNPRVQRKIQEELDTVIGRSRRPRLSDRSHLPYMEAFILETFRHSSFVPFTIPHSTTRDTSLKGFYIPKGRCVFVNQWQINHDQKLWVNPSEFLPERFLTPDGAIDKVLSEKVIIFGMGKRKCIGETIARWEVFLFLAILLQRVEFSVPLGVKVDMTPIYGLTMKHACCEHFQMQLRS
Experimental: (§2) Where needed, total protein concentration in the reaction mixtures was adjusted using Control Bactosomes (Cypex), so all reactions (including those with the recombinant cytochrome P450s) were carried out at a total protein concentration of 0.25 mg protein/ml. […] Slopes of the linear part of the kinetic curves were calculated using Ascent Software version 2.4.1 (Labsystems). For each well with the reaction medium, there was a control well containing the reaction mixture with resorufin (40 pmol). Before addition of NADPH to the reaction wells, fluorescence was recorded both from the reaction and from the control wells. The average fluorescence was calculated, and the difference between wells with and without resorufin was used for the conversion of the relative fluorescence units to the picomoles of the reaction product.

[2] = system: liver microsomes from TCDD-treated Cyp1a KO mice (non-Cyp1a component); assay: EROD in liver microsomes from TCDD-treated Cyp1a KO mice with and without quinidine
Experimental: (§3) Protein enzyme/concentrations were 3.46 pmol/ml for recombinant human CYP1A1, 10.8 pmol/ml for recombinant human CYP1A2, 0.05 mg protein/ml for liver microsomes from TCDD-treated hCYP1A1/1A2 mice, and 0.25 mg protein/ml for liver microsomes from TCDD-treated Cyp1 KO mice and vehicle-treated hCYP1A1/1A2 mice. Where needed, total protein concentration in the reaction mixtures was adjusted using Control Bactosomes (Cypex), so all reactions (including those with the recombinant cytochrome P450s) were carried out at a total protein concentration of 0.25 mg protein/ml. Generation of fluorescent product was registered in a kinetic mode (excitation filter, 530 nm; emission filter, 584 nm). Slopes of the linear part of the kinetic curves were calculated using Ascent Software version 2.4.1 (Labsystems). For each well with the reaction medium, there was a control well containing the reaction mixture with resorufin (40 pmol). Before addition of NADPH to the reaction wells, fluorescence was recorded both from the reaction and from the control wells. The average fluorescence was calculated, and the difference between wells with and without resorufin was used for the conversion of the relative fluorescence units to the picomoles of the reaction product.

[3] = target: T2, recombinant human CYP1A2 (Homo sapiens, UniProt P05177); details: read-out: Km ± S.E.; EROD; rCYP1A2
T2 sequence (P05177 1-516): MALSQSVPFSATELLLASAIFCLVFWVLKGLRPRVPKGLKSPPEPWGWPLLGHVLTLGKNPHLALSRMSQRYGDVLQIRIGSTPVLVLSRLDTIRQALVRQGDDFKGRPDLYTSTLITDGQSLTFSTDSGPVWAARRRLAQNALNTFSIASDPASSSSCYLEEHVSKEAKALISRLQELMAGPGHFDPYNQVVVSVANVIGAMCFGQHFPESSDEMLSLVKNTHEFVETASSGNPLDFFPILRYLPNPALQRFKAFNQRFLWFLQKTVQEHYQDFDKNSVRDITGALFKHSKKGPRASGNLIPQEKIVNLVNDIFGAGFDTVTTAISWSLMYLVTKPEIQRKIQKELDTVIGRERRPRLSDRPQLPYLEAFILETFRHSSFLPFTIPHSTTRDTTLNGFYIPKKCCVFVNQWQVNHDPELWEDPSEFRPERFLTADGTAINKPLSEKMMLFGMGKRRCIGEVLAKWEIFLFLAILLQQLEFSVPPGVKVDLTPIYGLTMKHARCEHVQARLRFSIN
Experimental: as §3

[4] = target: T1, recombinant human CYP1A1; parameters: host or cells: bacteria (membrane / 'bacterial microsomes' preparation); method as in Liu et al., 2004; details: recombinant human enzymes; ref Liu et al., 2004; cited from earlier work
[5] = system: Recombinant rat CYP1A1; parameters: method as in Namkung et al., 1988; details: recombinant rat enzymes; ref Namkung et al., 1988; cited from earlier work
[6] = system: liver microsomes; assay: Constitutive EROD and MROD activity in liver microsomes of WT, Cyp1a KO and hCYP1A1/1A2 mice; type: in vitro ADME, mouse
Experimental: (§1) A mixture of ER (0.93 μM) or MR (0.46 μM) and liver microsomes (0.004–0.27 mg protein/ml) in 100 mM potassium phosphate buffer (pH 7.4) supplemented with MgCl2 (3.3 mM) was incubated at 37°C for 5 minutes before the reaction was initiated by injection of NADPH (final concentration, 1.2 mM). […] Activities in duodenum, ileum, jejunum, colon, lung, kidney, spleen, heart, brain, and testis microsomes were measured as described earlier except for the following adjustments: MR concentration was 1 μM, concentration of total microsomal protein in the reaction was in the range of 0.07–0.43 mg/ml, and amount of resorufin added to calculate the reaction product concentration was 40 pmol.

[7] = system: liver microsomes from TCDD-treated hCYP1A1/1A2 mice; assay: EROD in liver microsomes from TCDD-treated hCYP1A1/1A2 mice: individual contribution of CYP1A1, CYP1A2 and non-Cyp1a; type: in vitro ADME, mouse
Experimental: as §3

[8] = system: liver microsomes from TCDD-treated Cyp1a KO mice (non-Cyp1a component); assay: MROD in liver microsomes from TCDD-treated Cyp1a KO mice with and without quinidine
Experimental: as §3

[9] = target: T2, recombinant human CYP1A2; assay: MROD by recombinant human CYP1A2, inhibition by quinidine; details: MROD, rCYP1A2
Experimental: (§4) Slopes of the linear part of the kinetic curves were calculated using Ascent Software version 2.4.1 (Labsystems).
as §2

[10] = system: liver microsomes from TCDD-treated hCYP1A1/1A2 mice; assay: MROD in liver microsomes from TCDD-treated hCYP1A1/1A2 mice: individual contribution of CYP1A1, CYP1A2 and non-Cyp1a; type: in vitro ADME, mouse
Experimental: as §3

[11] = target: T1, recombinant human CYP1A1; assay: MROD by recombinant human CYP1A1, inhibition by quinidine
Experimental: as §4, §2

[12] = system: Cyp1a/CYP1A enzymes; assay: TCDD treatment of mice: hepatic total P450, EROD and MROD induction; type: in vivo, mouse; details: for increase of total hepatic cytochrome P450: TCDD 10 µg/kg i.p., 48 hours
Experimental: Mice were given a single intraperitoneal dose of TCDD (10 µg/kg) or vehicle control (corn oil) and then euthanized 48 hours after the dosing using a rising concentration of CO2.
Microsomal fractions were prepared as previously described ([Henderson et al., 2019]). In brief, fresh liver samples were homogenized in ice-cold SET(Sucrose-EDTA-Tris) buffer (0.25 M sucrose, 5 mM EDTA, 20 mM Tris-HCL, pH 7.4; 9 ml buffer/g liver) and centrifuged at 2000 rpm (Sorvall RTH-250, 10 minutes, 4°C). The supernatant was centrifuged (12,000 rpm, Sorvall SS-34 rotor, 20 minutes, 4°C), the resulting supernatant was centrifuged (∼30,000 rpm, Sorvall TFT-45.6, 90 minutes, 4°C) (ThermoFisher Scientific, UK), and microsomal pellets were resuspended in ice-cold SET buffer and stored at −70°C.
Microsomal protein concentration fractions were measured using a modification of a previously described method ([Lowry et al., 1951]) and total hepatic microsomal P450 as previously described ([Omura and Sato, 1964]).
as §1

[13] = Microsomal stability in mouse liver microsomes (WT, Cyp1a KO, hCYP1A1/1A2)
Experimental: The reaction was started by addition of 200 μl of NADPH to the remaining mixture of ramelteon with microsomes, and 100-μl aliquots were taken at 1, 2, 5, 10, 15, 20, and 30 minutes after the reaction start; mixed with an equal volume of ice-cold methanol containing the internal standard; incubated on ice for at least 20 minutes; and centrifuged for 15 minutes at 16,000 rcf and +4°C on Centrifuge 5415 R (Eppendorf, Hamburg, Germany). Control incubations were carried out without the cofactor or microsomes. The concentration of ramelteon in the supernatant was measured by high-performance liquid chromatography–tandem mass spectrometry (MS/MS). Chromatographic separation was performed on a Prodigy Phenyl-3 column (5 μm, 50 × 2.0 mm; Phenomenex) using an injection volume of 10 μl and a run time of 7 minutes. Mobile phase consisted of 0.1% solutions of formic acid in water (solvent A) and acetonitrile (solvent B). For elution, a linear gradient from 20% to 60% of solvent B in 4 minutes was used, followed by 3-minute equilibration at 20% B. The multiple reaction monitoring parameters for ramelteon and tacrine were 260.28, 199.2 (precursor ion) and 204.21, 171.11 (product ion), respectively. The concentrations of ramelteon were calculated from the calibration curve.

[14] = liver microsomes from TCDD-treated hCYP1A1/1A2 mice, nonlinear regression eq. 7
[15] = quinidine 200 μM, low concentration of ER
[16] = 200 μM quinidine, increased substrate concentration
[17] = 200 μM quinidine, low concentrations of MR
[18] = absence of inhibitor, low substrate concentrations
[19] = liver microsomes from TCDD-treated hCYP1A1/1A2 mice, nonlinear regression eq. 8
[20] = hCYP1A1/1A2 mice, liver microsomes

CCOc1ccc2nc3ccc(=O)cc-3oc2c1 [ER, 7-ethoxyresorufin]
Kd ([1]; read-out: Ks1 ± S.E., productive enzyme-substrate complex): 0.09 ± 0.008 µM
Kd ([1]; read-out: Ks2 ± S.E., inhibitory enzyme-substrate complex): 11 ± 1 µM
kcat ([1]; recombinant CYP1A1, Vmax 3300 at 71 pmol/mg protein): 0.783 s⁻¹
Vmax ([1]; recombinant CYP1A1, enzyme concentration 71 pmol/mg protein): 3300 pmol/min/mg protein
Kd ([2]; read-out: Ks1 ± S.E.): 0.83 ± 0.04 µM
Kd ([2]; read-out: Ks2 ± S.E.): 13 ± 1.5 µM
Km [3]: 1.2 µM
EROD activity of CYP1A1 compared with CYP1A2 (times more active) [4]: ~2.8 times
EROD activity of CYP1A1 compared to CYP1A2 (times more active) [5]: ~59 times
decrease of EROD activity relative to WT animals ([6]; liver microsomes from Cyp1a KO mice, untreated): 22%
constitutive EROD activity relative to WT ([6]; liver microsomes from hCYP1A1/1A2 mice): 155%
CYP1A1 contribution to EROD ([7]; absence of quinidine, 1 μM ER): 70%
CYP1A2 contribution to EROD ([7]; absence of quinidine, 6 μM ER): ~45%
CYP1A1 contribution to EROD ([7]; absence of quinidine, 6 μM substrate): ~51%
CYP1A1 contribution to EROD ([7]; absence of quinidine, low (10 pM) substrate concentration): ~94%
CYP1A2 contribution to EROD ([7]; absence of quinidine, low substrate concentration): ~4.8%
Vmax for CYP1A1, EROD [7, 14]: 2800 pmol/min/mg protein
Vmax for CYP1A2, EROD [7, 14]: 1900 pmol/min/mg protein and 1909 pmol/min/mg protein
CYP1A1 contribution to EROD [7, 15]: ~22%
CYP1A2 contribution to EROD [7, 15]: 70%
non-CYP1A contribution to EROD [7, 15]: 8%

COc1ccc2nc3ccc(=O)cc-3oc2c1 [MR, 7-methoxyresorufin]
Kd ([8]; read-out: Ks1 ± S.E.): 0.96 ± 0.18 µM
Kd ([8]; read-out: Ks2 ± S.E.): 3.4 ± 0.8 µM
Kd ([9]; read-out: Ks1 ± S.E.): 0.58 ± 0.08 µM
Kd ([9]; read-out: Ks2 ± S.E.): 12 ± 3.5 µM
Non-Cyp1a contribution to MROD [10]: ≤ 1.5%
CYP1A1 contribution to MROD [10, 16]: ~9%
CYP1A2 contribution to MROD [10, 16]: ~90%
CYP1A1 contribution to MROD [10, 17]: less than 1%
CYP1A2 contribution to MROD [10, 17]: ~98%
CYP1A1 contribution to MROD ([10]; absence of inhibitor, 6 μM MR): ~18%
CYP1A2 contribution to MROD ([10]; absence of inhibitor, 6 μM MR): ~81%
CYP1A1 contribution to MROD [10, 18]: 49%
CYP1A2 contribution to MROD [10, 18]: 50%
Vmax for CYP1A1, MROD [10, 19]: 1600 pmol/min/mg protein
Vmax for CYP1A2, MROD [10, 19]: 2000 pmol/min/mg protein and 1969 pmol/min/mg protein
MROD activity of CYP1A1 compared with CYP1A2 (times less active) [4]: ~5.8 times
MROD activity of CYP1A1 compared to CYP1A2 (times less active) [5]: ~14 times
MROD activity compared with WT animals ([6]; hCYP1A1/1A2 mouse line liver microsomes): unchanged
decrease of MROD compared with WT animals ([6]; liver microsomes from Cyp1a KO mice): approximately 90%
Kd ([11]; read-out: Ks1 ± S.E., rCYP1A1): 0.47 ± 0.07 µM
Kd ([11]; read-out: Ks2 ± S.E., rCYP1A1): 1.3 ± 0.18 µM

Clc1cc2c(cc1Cl)Oc1cc(Cl)c(Cl)cc1O2 [TCDD, 2,3,7,8-tetrachlorodibenzo-p-dioxin]
increase in MROD activity ([12]; Cyp1a KO line, liver microsomes): 4.6 fold
increase in EROD activity relative to untreated animals ([12]; Cyp1a KO liver): 3 fold
change in total P450 on TCDD treatment ([12]; Cyp1a KO mice): no change
concentration of hepatic CYP1A1 estimated from EROD Vmax/kcat ([12]; TCDD-treated hCYP1A1/1A2 mice): 59 pmol/mg microsomal protein
CYP1A enzymes as share of total hepatic P450 content after TCDD ([12]; WT mice): 58%
increase of total hepatic cytochrome P450 ([12]; WT mice): 2.37 fold
increase in EROD activity relative to untreated animals ([12]; WT mice, liver microsomes): ~114 fold
increase in MROD activity ([12]; WT mice, liver microsomes): 44 fold
total hepatic cytochrome P450 after TCDD ([12]; WT mice, liver microsomes): 840 pmol/mg protein
CYP1A enzymes as share of total hepatic P450 content after TCDD ([12]; hCYP1A1/1A2 mice): 46%
increase of total hepatic cytochrome P450 ([12]; hCYP1A1/1A2 mice): 1.84 fold
increase in EROD activity relative to untreated animals [12, 20]: 39 fold
increase in MROD activity [12, 20]: 31 fold
total hepatic cytochrome P450 after TCDD [12, 20]: 632 pmol/mg protein

Nc1c2c(nc3ccccc13)CCCC2 [tacrine]
fraction metabolized by Cyp1a2 ([13]; WT mice liver microsomes, eqs. 15 and 16): ~0.68
fraction metabolized by CYP1A2 ([13]; hCYP1A1/1A2, mouse, microsomes, 1 µM, pH 7.4): ~0.60
